Source: patent US20060281700A1, “SYNERGISTIC MODULATION OF FLT3 KINASE USING AMINOPYRIMIDINES KINASE MODULATORS” (priority 2005, published 2006)

How the values were obtained:
MV4-11 cells = test: Annexin V Staining (apoptosis); type: cell-based, human; conditions: MV4-11, 48 hours, fixed ratio 4:1 Tipifarnib and Compound A
From the text: The ultimate goal of treatment for FLT3 related disorders is to kill the disease causative cells and to cause regression of disease. […] Annexin V binding to phosphotidyl serine that has translocated from the inner leaflet of the plasma membrane to the outer leaflet of the plasma membrane and is a well established way to measure apoptosis of cells. See van Engeland M., L. J. Nieland, et al. (1998) “Annexin V-affinity assay: a review on an apoptosis detection system based on phosphatidylserine exposure.” Cytometry. 31(1):1-9.
After the compound incubations, treated cells were harvested and stained with Annexin V-PE and 7-AAD using the Guava Nexin apoptosis kit according to the protocol in the Biological Activity Measurements section hereafter. Annexin V staining peaks at 60% because cells late in apoptosis begin to fall apart and are considered debris. […] Statistical analysis using the above described method of Chou and Talalay was also performed to determine the synergy of the combination. […] The magnitude of the synergistic induction of apoptosis of MV4-11 cells by the combination of an FTI and a FLT3 inhibitor could not be predicted by those skilled in the art. […]
Annexin V Staining. […] All annexin positive cells were considered apoptotic and percent Annexin positive cells was calculated.

[1] = system: cells that depend on FLT3 for growth; test: Standard 72-hour cell proliferation assay, FLT3 dependent cell lines taken together; type: cell-based; conditions: 72-hour proliferation; depending on the cell type
Protocol: The cell lines that were tested included those that are dependent on FLT3ITD mutant activity for growth (MV4-11 and Baf3-FLT3ITD), FLT3 wt activity for growth (Baf3FLT3) and those that grow independent of FLT3 activity (THP-1). […] Baf3-FLT3 and Baf3-FLT3ITD cell lines were obtained from Dr. Michael Henrich and the Oregon Health Sciences University. The Baf3 FLT3 cell lines were created by stable transfection of parental Baf3 cells (a murine B cell lymphoma line dependent on the cytokine IL-3 for growth) with either wild-type FLT3 or FLT3 containing the ITD insertion in the juxatamembrane domain of the receptor resulting in its constitutive activation. Cells were selected for their ability to grow in the absence of IL-3 and in either the presence of FLT3 ligand (Baf3-FLT3) or independent of any growth factor (Baf3-ITD). […]
Dose responses for the individual compounds alone were determined for each cell line using a standard 72-hour cell proliferation assay (see FIGS. 6.1-6.8). […]
Cell proliferation assay for MV4-11, Baf3-ITD, Baf3-FLT3 and THP-1 cells. […] Total cell growth is quantified as the difference in luminescent counts (relative light units, RLU) of cell number at Day 0 compared to total cell number at Day 3 (72 hours of growth and/or compound treatment). One hundred percent inhibition of growth is defined as an RLU equivalent to the Day 0 reading. […]

SMILES: Cn1cncc1C(N)(c1ccc(Cl)cc1)c1ccc2c(c1)c(-c1cccc(Cl)c1)cc(=O)n2C (single isomer, unassigned; (+)) [Tipifarnib, (+)-6-[amino(4-chlorophenyl)(1-methyl-1H-imidazol-5-yl)methyl]-4-(3-chlorophenyl)-1-methyl-2(1H)-quinolinone]
- shift of EC50 for the induction of annexin V staining in combination (MV4-11 cells): more than eight-fold
- single agent potency for inhibition of proliferation [1]: high nanomolar to high picomolar range
